In patent publication US20060252813A1, “Apparatus for curing a composite laminate” (priority 2002, published 2006) one finds IC50 data, which are given here for eight compounds.

In one assay the target is hFKBP12 (Homo sapiens, UniProt P62942). As to the kind of experiment: protease-coupled PPIase assay, hFKBP12. As to conditions: 20 nM hFKBP12; substrate Suc-Ala-Phe-Pro-Phe-pNA, α-chymotrypsin; 35 mM HEPES pH 7.8, 6° C; read-out: Target T-2 (hFKBP12), IC50 class. Format: biochemical.
The target of the next assay is hPin1 (Homo sapiens, UniProt Q13526). As to the kind of experiment: protease-coupled PPIase assay, hPin1. The following applies: 6 nM hPin1; substrate Ac-Ala-Ala-Ser(PO3H2)-Pro-Arg-pNA, trypsin; 35 mM HEPES pH 7.8, 6° C; read-out: Target T-1 (hPin1), IC50 class. The assay is classed as biochemical.
The target in the next assay is LpCyp18 (Legionella pneumophila, UniProt Q5ZRZ4). As to the kind of experiment: biochemical.
Another assay deals with hCyp18 (Homo sapiens, UniProt P62937). As to the kind of experiment: protease-coupled PPIase assay, hCyp18. The assay is classed as biochemical. The following applies: 10 nM hCyp18; substrate Suc-Ala-Phe-Pro-Phe-pNA, α-chymotrypsin; 35 mM HEPES pH 7.8, 6° C; read-out: Target T-3 (hCyp18), IC50 class.
In a further assay the target is EcParvulin (Escherichia coli, UniProt P0A9L5). The assay is described as follows: protease-coupled PPIase assay, EcParvulin. Format: biochemical. The following applies: 20 nM EcParvulin; substrate Suc-Ala-Phe-Pro-Phe-pNA, α-chymotrypsin; 35 mM HEPES pH 7.8, 6° C; read-out: Target T-5 (EcParv), IC50 class.

Where a SMILES comes first, the peptide text is derived from it. [ ]: non-standard residue; d: D form. Phe(3-CN) = N#Cc1cccc(C[CH](N)C(=O)O)c1; Phe(2-CN) = N#Cc1ccccc1C[CH](N)C(=O)O; 1Nal = N[CH](Cc1cccc2ccccc12)C(=O)O

Sequence of hFKBP12 (P62942 whole entry): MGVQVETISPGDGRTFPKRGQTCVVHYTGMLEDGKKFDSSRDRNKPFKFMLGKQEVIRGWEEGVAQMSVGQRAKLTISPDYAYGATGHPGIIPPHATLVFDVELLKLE
Sequence of LpCyp18 (Q5ZRZ4 1-164): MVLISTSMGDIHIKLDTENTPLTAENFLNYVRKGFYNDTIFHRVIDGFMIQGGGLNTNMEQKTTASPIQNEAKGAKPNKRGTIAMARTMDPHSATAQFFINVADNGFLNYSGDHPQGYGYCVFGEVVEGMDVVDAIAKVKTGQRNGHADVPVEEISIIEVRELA
Sequence of hPin1 (Q13526 whole entry): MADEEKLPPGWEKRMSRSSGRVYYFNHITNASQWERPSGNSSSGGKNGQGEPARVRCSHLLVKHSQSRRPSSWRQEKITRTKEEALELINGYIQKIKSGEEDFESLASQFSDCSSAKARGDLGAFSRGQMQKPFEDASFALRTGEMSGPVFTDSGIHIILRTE
Sequence of hCyp18 (P62937 whole entry): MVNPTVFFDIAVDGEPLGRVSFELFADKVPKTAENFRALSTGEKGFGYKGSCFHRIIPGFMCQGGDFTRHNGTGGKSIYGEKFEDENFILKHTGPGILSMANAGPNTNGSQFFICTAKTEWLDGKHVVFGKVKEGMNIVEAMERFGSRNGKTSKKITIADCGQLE
Sequence of EcParvulin (P0A9L5 whole entry): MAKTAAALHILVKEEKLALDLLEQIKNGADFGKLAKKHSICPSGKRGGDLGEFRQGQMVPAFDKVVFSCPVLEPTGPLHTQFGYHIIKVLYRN

In general, IC50 refers to the concentration that inhibits the measured activity by half. As for `CCNC(=S)NC(Cc1ccc2ccccc2c1)C(=O)NCCC#N` (stereo not drawn) [Compound 1], the IC50 at hFKBP12 was > 100 µM; on hPin1, < 5 µM; against LpCyp18 it was > 100 µM; on hCyp18, > 100 µM.

Regarding `N#CCCNC(=O)[C@H](Cc1csc2ccccc12)NC(=S)Nc1ccc(SC(F)(F)F)cc1` [Compound 2], the IC50 on hFKBP12 was > 100 µM; at hPin1, 5 to 10 µM; against LpCyp18, > 100 µM; at hCyp18 it was > 100 µM.

In the case of `N#CCCNS(=O)(=O)Cc1ccccc1` [Compound 3], the IC50 on hFKBP12 was > 100 µM; at hPin1 it was 5 to 10 µM; on LpCyp18, > 100 µM; on hCyp18, > 100 µM.

For the compound `CCc1ccc(NC(=S)NCCC#N)cc1` [Compound 5], the IC50 is > 100 µM at hFKBP12, < 5 µM on hPin1, > 100 µM on LpCyp18 and > 100 µM on hCyp18.

Regarding `CC(C)CC(NC(=O)C1CCCN1CC#N)C(N)=O` (stereo not drawn) [Compound 6], the IC50 at hFKBP12 is > 100 µM; on hPin1, 5 to 10 µM; against LpCyp18, > 100 µM; on hCyp18, > 100 µM.

For the compound `CN(C)c1ccc(N=Nc2ccc(S(=O)(=O)NCCC#N)cc2)cc1` [Compound 7], the IC50 on hFKBP12 was > 100 µM; at hPin1, 5 to 10 µM; against LpCyp18, > 100 µM; on hCyp18, > 100 µM.

Take `CC(=O)NC(Cc1cccc2ccccc12)C(=O)NC(Cc1ccccc1C#N)C(N)=O` (stereo not drawn) [Compound 8] (Ac-[1Nal]-[Phe(2-CN)]-NH2; configuration not given here): the IC50 was > 100 µM on hFKBP12, < 5 µM at hPin1, > 100 µM against LpCyp18 and > 100 µM on hCyp18.

On to `CC(=O)NC(Cc1cccc2ccccc12)C(=O)NC(Cc1cccc(C#N)c1)C(N)=O` (stereo not drawn) [Compound 9] (Ac-[1Nal]-[Phe(3-CN)]-NH2; configuration not given here), for which the IC50 was > 100 µM at hFKBP12; 5 to 10 µM on EcParvulin; 5 to 10 µM at hPin1; > 100 µM against LpCyp18; > 100 µM on hCyp18.
